Laboratory results published in patent US11260027B2, “Donor organ pre-treatment formulation” (MUSC FOUNDATION FOR RESEARCH DEVELOPMENT, priority 2015, dated 2022).

How the values were obtained:
HUVEC = system: HUVEC
Procedure: (§1) Human Umbilical Vein Endothelial Cells (HUVEC), complete endothelial growth medium-2 (EGM-2) and bullet kit were purchased from Lonza (Walkersville, Md.). Cells were grown and maintained in a humidified 37° C. and 5% CO2 atmosphere. Cells were expanded on T75 cm^2 polystyrene flasks to passage 5 and plated onto 6-well plates for experimental assays (Fischer Scientific, Pittsburgh, Pa.). MCEC, a normal mouse cardiac endothelial cell line from Cedarlane (Ontario, Canada), were cultured in Dulbecco's Modified Eagle Medium (DMEM) (Life Technologies, CA) supplemented with 10% fetal bovine serum (FBS) in a 37° C. incubator with humidified room air and 5% CO2.
(§2) M-Per lysis of Ecs was used as an assay control.

MCEC = system: MCEC
Procedure: as §1, §2

aortic allograft = assay: Aortic allograft model of chronic allograft rejection (Balb/c to C57Bl/6); format: in vivo, mouse; details: 100 or 1000 ng/ml tested; quantified intimal thickening
Procedure: Male Balb/c (H-2^d) and C57BL/6 (B6;H-2^b) mice (8-10 weeks) were obtained from Jackson laboratory (Bar Harbor, Me.). All mice weighed 25-30 g and were housed under specific pathogen-free conditions at the Medical University of South Carolina (Charleston, S.C.) and were used for transplantation studies. In the following series, transplants to male B6 mice were performed under clean conditions using Balb/c donors in the allograft group (Balb/c to B6, n=20) and B6 donors in the isograft group (B6 to B6, n=10). The mice were anesthetized with intraperitoneal injections of ketamine (75 mg/kg, Lloyd Laboratories, Shenandoah, Iowa, USA) and xylazine (16 mg/kg, Vedco, Inc., St. Joseph, Mo., USA) diluted in sterile normal saline. An operating microscope with 16×magnification was used for the surgical procedure. The cuff used for the anastamosis consisted of a 0.6 mm body and a 0.6 mm extension crafted from a 24 gauge polyimide catheter (inner diameter 0.5 mm, wall thickness 0.025 mm, cat. No. 141-0027, Vention Medical, NH, USA).
After satisfactory anesthetic was administered, the donor mouse was placed in supine position and a midline thoraco-abdominal incision was made. […] For orthotopic transplantation, the bowel was reflected cephalad, the colon was retracted to the animal's left side, and the seminal vesicles and testes were distracted caudally. […]

[1] = target: integrin αVβ3 on human umbilical vein endothelial cells (HUVEC) (human) (UniProt P06756); assay: cell-based or functional assay
Chain of integrin αVβ3 on human umbilical vein endothelial cells (HUVEC) (human) (P06756 31-1048, chain 1 of 2): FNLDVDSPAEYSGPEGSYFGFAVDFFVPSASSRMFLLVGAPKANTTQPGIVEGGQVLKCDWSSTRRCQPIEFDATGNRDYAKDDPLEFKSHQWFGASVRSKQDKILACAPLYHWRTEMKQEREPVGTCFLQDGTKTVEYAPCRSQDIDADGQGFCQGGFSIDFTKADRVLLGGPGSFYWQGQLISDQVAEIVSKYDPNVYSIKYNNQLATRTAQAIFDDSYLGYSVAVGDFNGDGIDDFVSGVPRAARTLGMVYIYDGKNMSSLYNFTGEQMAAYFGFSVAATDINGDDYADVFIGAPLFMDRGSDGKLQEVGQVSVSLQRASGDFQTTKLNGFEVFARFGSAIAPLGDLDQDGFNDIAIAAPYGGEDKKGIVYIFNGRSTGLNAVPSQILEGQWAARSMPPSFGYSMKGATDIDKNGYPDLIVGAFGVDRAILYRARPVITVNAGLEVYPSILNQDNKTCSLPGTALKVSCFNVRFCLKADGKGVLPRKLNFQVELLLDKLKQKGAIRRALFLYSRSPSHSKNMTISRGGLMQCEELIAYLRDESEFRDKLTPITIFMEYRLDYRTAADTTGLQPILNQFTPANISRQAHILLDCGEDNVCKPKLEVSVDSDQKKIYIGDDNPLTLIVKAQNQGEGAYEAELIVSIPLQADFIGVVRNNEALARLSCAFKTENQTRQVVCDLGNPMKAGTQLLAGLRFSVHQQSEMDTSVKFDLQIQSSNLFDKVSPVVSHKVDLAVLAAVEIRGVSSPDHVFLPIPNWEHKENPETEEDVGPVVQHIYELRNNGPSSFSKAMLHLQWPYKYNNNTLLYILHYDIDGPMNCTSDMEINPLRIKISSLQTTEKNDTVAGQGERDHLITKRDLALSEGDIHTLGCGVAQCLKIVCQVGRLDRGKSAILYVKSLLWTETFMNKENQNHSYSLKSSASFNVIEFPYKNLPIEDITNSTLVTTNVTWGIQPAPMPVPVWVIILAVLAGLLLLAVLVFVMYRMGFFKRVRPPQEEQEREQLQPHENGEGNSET
Chain of integrin αVβ3 on human umbilical vein endothelial cells (HUVEC) (human) (P05106 27-788, chain 2 of 2, further chain): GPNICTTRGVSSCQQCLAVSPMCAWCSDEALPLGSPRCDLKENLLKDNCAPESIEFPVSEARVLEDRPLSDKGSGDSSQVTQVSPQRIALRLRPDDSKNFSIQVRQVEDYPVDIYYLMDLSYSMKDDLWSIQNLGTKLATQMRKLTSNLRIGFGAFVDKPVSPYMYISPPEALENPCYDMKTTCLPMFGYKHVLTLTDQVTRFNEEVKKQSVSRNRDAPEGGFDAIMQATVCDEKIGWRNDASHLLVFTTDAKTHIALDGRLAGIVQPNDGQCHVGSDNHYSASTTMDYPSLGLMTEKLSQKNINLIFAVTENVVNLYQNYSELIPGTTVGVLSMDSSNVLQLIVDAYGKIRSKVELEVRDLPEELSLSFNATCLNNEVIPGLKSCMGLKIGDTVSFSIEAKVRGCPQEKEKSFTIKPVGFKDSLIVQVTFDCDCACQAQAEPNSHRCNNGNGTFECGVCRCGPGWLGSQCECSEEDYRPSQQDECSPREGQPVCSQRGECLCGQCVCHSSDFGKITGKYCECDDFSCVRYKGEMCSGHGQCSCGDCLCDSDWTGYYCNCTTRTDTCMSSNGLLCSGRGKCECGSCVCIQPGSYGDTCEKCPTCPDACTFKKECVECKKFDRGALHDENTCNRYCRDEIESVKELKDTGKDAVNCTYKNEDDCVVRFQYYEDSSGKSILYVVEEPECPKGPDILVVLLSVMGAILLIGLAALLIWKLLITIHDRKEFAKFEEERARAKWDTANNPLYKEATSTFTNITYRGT

increase of fluorescence in HUVEC over a 6 hours period, without brefeldin A (-BA) [1] [%] | micelle internalization into HUVEC (confocal microscopy, Dylight 680 fluorescence) compared to untargeted RaM [1] [%] | Molecule | cell toxicity and death (MTS cell viability) (HUVEC) | concentration that did induce toxicity (HUVEC; human, 6 h) [ng/mL] | cell toxicity and death (MTS cell viability) (MCEC) | concentration that did induce toxicity (MCEC; mouse, 6 h) [ng/mL] | dose in Belzer UW solution that provided protection (aortic allograft) [ng/mL]
– | – | CO[C@H]1C[C@@H]2CC[C@@H](C)[C@@](O)(O2)C(=O)C(=O)N2CCCC[C@H]2C(=O)O[C@H]([C@H](C)C[C@@H]2CC[C@@H](O)[C@H](OC)C2)CC(=O)[C@H](C)/C=C(\C)[C@@H](O)[C@@H](OC)C(=O)[C@H](C)C[C@H](C)/C=C/C=C/C=C/1C [free rapamycin, rapamycin] | do not result in significant cell toxicity and death | 3000 | do not result in significant cell toxicity and death | 3000 | 1000
88 | > 50 | Targeted Rapamycin Micelles (TRaM): rapamycin micelles bearing the cyclic peptide arginine-glycine-aspartate (cRGD) on the surface, labeled with Dylight 680 | – | – | – | – | –
